Measurements from paper PMC12446003, “Pharmacological characterization of linaprazan glurate (X842), a novel potassium-competitive acid blocker, in vitro and in vivo” (Frontiers in Pharmacology, 2025).
Like-named read-outs stand apart in the source and are kept apart here.

Assays:
[1] = Pharmacokinetic assessment of X842 in dogs (IV, single oral, repeated oral); type: in vivo; conditions: beagle, dog, plasma, analyte as labelled; for half-life at 1 day: read-out: t1/2 Day 1 (converted); for half-life at 7 day: read-out: t1/2 Day 7 (converted); for half-life: read-out: t1/2 (converted)
Procedure: (§1) Pharmacokinetic assessments were conducted by Shanghai Medicilon Inc. Using C18 solid-phase extraction (Shimadzu UFLC-20A, ACE 3, C18, 3.0 µm, 150 × 4.6 mm; Shimadzu, Japan) with the following conditions: mobile phase A: 1 M ammonium acetate in water, mobile phase B: 100% acetonitrile; gradient 0–5 min: 100% A, 5–30 min: 85% A, 35–63 min: 75% A, 63–65 min: 55% A, 65–70 min: 0% A, 72–87 min: 100% A; flow rate 0.7 mL/min; column temperature 30 °C ([Weidof and Covey, 1992]). […] Bioavailability was calculated as F (%) = (Doseiv × AUCpo(0–24h)) ÷ (Dosepo × AUCiv (0–24h)) × 100%, where “po” represents oral administration and “iv” represents intravenous administration.
Male and female Beagle dogs weighing around 9 kg were arbitrarily selected for testing. Food and water were provided ad libitum, except during overnight fasting (15–16 h) prior to oral drug administration ([Adebowale et al., 2002]). X842 were dissolved in the PEG400/ethanol/Solutol/water mixture (40:10:5:45% v/v) and methane sulfonic acid was used to adjust to pH 3, yielding solutions with concentrations of 0.3 mg/mL, 1.2 mg/mL, and 4.8 mg/mL for oral administration. There were four rounds of drug administration. One week was required between the rounds of testing according to the conditions for of animal welfare maintenance. For IV injection, a drug solution with a concentration of 0.3 mg/mL was prepared and filtered through a 0.22-μm filter. Blood samples were collected via the jugular vein using the same procedures as were used for the rat experiments. Following centrifugation, the plasma was transferred to clean tubes and stored at −80 °C until further analysis. All animals were euthanized by phenobarbital injection after the final blood sample collection. Pharmacokinetic assessments were conducted as described in 2.2.1.

[2] = Pharmacokinetic assessment of X842 in rats (IV, single oral, repeated oral); type: in vivo, Sprague-Dawley rats; conditions: Sprague-Dawley, rat, plasma; for AUC(0-t): read-out: AUC(0–24h); for half-life: read-out: t1/2 (converted)
Procedure: Male and female Sprague-Dawley rats weighing approximately 150 g were housed individually with a 12-h light/dark cycle. Food and water were provided ad libitum, except during overnight fasting (10–16 h) prior to oral drug administration, as described previously ([Kotegawa et al., 1998]; [Kotegawa et al., 2002]). To investigate the absorption kinetics of X842 (prodrug) and linaprazan (metabolite, parent drug) in rats after oral and intravenous administration of X842, X842 were dissolved in 5% Solutol HS15/45% ethanol/10% PEG400/40% saline, and methane sulfonic acid was used to adjust to pH 3, yielding solutions with concentrations of 0.6 mg/mL, 2.4 mg/mL, and 9.6 mg/mL for oral administration. For intravenous (IV) injection, a drug solution (0.6 mg/mL) was prepared and filtered through a 0.22-μm filter. Blood samples were collected via the jugular vein of conscious rats (without intubation, narcotics, or antibiotics) prior to dosing and at 0.083, 0.25, 0.5, 1, 2, 4, 6, 8, and 24 h after dosing. Blood samples were placed into tubes containing sodium heparin and centrifuged at 3,500 rpm for 10 min at 4 °C. Following centrifugation, the plasma was transferred to clean tubes and stored at −80 °C until further analysis. All animals were euthanized by carbon dioxide (CO2) inhalation after the final blood sample collection.
as §1

[3] = 1.2 mg/kg, female dogs, repeat oral X842, Day 1
[4] = 1.2 mg/kg, female dogs, repeat oral X842, Day 7
[5] = female dogs, intravenous X842 0.3 mg/kg
[6] = female dogs, single oral X842 0.3 mg/kg
[7] = female dogs, single oral X842 1.2 mg/kg
[8] = female dogs, single oral X842 4.8 mg/kg
[9] = male dogs, intravenous X842 0.3 mg/kg
[10] = male dogs, single oral X842 0.3 mg/kg
[11] = male dogs, single oral X842 1.2 mg/kg
[12] = male dogs, single oral X842 4.8 mg/kg
[13] = female, iv, 0.6 mg/kg, female rats, intravenous X842, plasma analyte as labelled
[14] = female, po, 0.6 mg/kg, female rats, single oral X842 0.6 mg/kg, analyte as labelled
[15] = female, po, 2.4 mg/kg, female rats, single oral X842 2.4 mg/kg, analyte as labelled
[16] = female, po, 9.6 mg/kg, female rats, single oral X842 9.6 mg/kg, analyte as labelled
[17] = male, iv, 0.6 mg/kg, male rats, intravenous X842, plasma analyte as labelled
[18] = male, po, 0.6 mg/kg, male rats, single oral X842 0.6 mg/kg, analyte as labelled
[19] = male, po, 2.4 mg/kg, male rats, single oral X842 2.4 mg/kg, analyte as labelled
[20] = male, po, 9.6 mg/kg, male rats, single oral X842 9.6 mg/kg, analyte as labelled

Cmax at 1 day [1, 3]: 67.2 ± 4.7 ng/mL
half-life at 1 day [1, 3]: 3.2 ± 0.42 h
Cmax at 7 day [1, 4]: 65 ± 4.7 ng/mL
half-life at 7 day [1, 4]: 5.1 ± 1.1 h
half-life at 1 day ([1]; 1.2 mg/kg, male dogs, 7 days of repeat oral X842, Day 1): 2.8 ± 0.2 h
half-life at 7 day ([1]; 1.2 mg/kg, male dogs, 7 days of repeat oral X842, Day 7): 3.8 ± 0.4 h
Cmax at 1 day ([1]; 1.2 mg/kg, male dogs, repeat oral X842, Day 1): 82.8 ± 56.5 ng/mL
Cmax at 7 day ([1]; 1.2 mg/kg, male dogs, repeat oral X842, Day 7): 67.5 ± 23.9 ng/mL
Cmax [1, 5]: 30.6 ± 6.2 ng/mL
half-life [1, 5]: 1.6 ± 0.2 h
Cmax [1, 6]: 10.4 ± 1.4 ng/mL
half-life [1, 6]: 2.1 ± 0.4 h
Cmax [1, 7]: 67.2 ± 4.7 ng/mL
half-life [1, 7]: 3.2 ± 0.42 h
Cmax [1, 8]: 535 ± 149 ng/mL
half-life [1, 8]: 2.2 ± 0.9 h
Cmax [1, 9]: 45.5 ± 21.4 ng/mL
half-life [1, 9]: 1.5 ± 0.25 h
Cmax [1, 10]: 15.8 ng/mL
half-life [1, 10]: 2.2 ± 0.7 h
Cmax [1, 11]: 82.8 ± 56.5 ng/mL
half-life [1, 11]: 2.8 ± 0.2 h
Cmax [1, 12]: 851 ± 116 ng/mL
half-life [1, 12]: 2.6 ± 0.2 h
AUC(0-t) ([1]; female, iv, 0.3 mg/kg, female dogs, intravenous X842 0.3 mg/kg, read-out: AUC(0-24h)): 106 ± 13.9 ng·h/mL
AUC(0-t) ([1]; female, po, 0.3 mg/kg, female dogs, single oral X842 0.3 mg/kg, read-out: AUC(0-24h)): 48.7 ± 7.4 ng·h/mL
AUC(0-t) ([1]; female, po, 1.2 mg/kg, female dogs, repeat oral X842, Day 1, read-out: AUC(0-24h) Day 1): 412 ± 166 ng·h/mL
AUC(0-t) ([1]; female, po, 1.2 mg/kg, female dogs, repeat oral X842, Day 7, read-out: AUC(0-24h) Day 7): 508 ± 41.8 ng·h/mL
AUC(0-t) ([1]; female, po, 1.2 mg/kg, female dogs, single oral X842 1.2 mg/kg, read-out: AUC(0-24h)): 412 ng·h/mL
AUC(0-t) ([1]; female, po, 4.8 mg/kg, female dogs, single oral X842 4.8 mg/kg, read-out: AUC(0-24h)): 2920 ng·h/mL
AUC(0-t) ([1]; male, iv, 0.3 mg/kg, male dogs, intravenous X842 0.3 mg/kg, read-out: AUC(0-24h)): 170 ± 26.2 ng·h/mL
AUC(0-t) ([1]; male, po, 0.3 mg/kg, male dogs, single oral X842 0.3 mg/kg, read-out: AUC(0-24h)): 77.8 ± 66.8 ng·h/mL
AUC(0-t) ([1]; male, po, 1.2 mg/kg, male dogs, repeat oral X842, Day 1, read-out: AUC(0-24h) Day 1): 436 ± 272 ng·h/mL
AUC(0-t) ([1]; male, po, 1.2 mg/kg, male dogs, repeat oral X842, Day 7, read-out: AUC(0-24h) Day 7): 439 ± 81.6 ng·h/mL
AUC(0-t) ([1]; male, po, 1.2 mg/kg, male dogs, single oral X842 1.2 mg/kg, read-out: AUC(0-24h)): 436 ng·h/mL
AUC(0-t) ([1]; male, po, 4.8 mg/kg, male dogs, single oral X842 4.8 mg/kg, read-out: AUC(0-24h)): 4850 ng·h/mL
Cmax [2, 13]: 80.5 ± 17.7 ng/mL
AUC(0-t) [2, 13]: 133 ± 11.1 ng·h/mL
half-life [2, 13]: 2 ± 0.4 h
Cmax [2, 14]: 13.5 ± 5.8 ng/mL
AUC(0-t) [2, 14]: 67.6 ± 23.7 ng·h/mL
half-life [2, 14]: 3.7 ± 1.6 h
Cmax [2, 15]: 72.5 ± 5.6 ng/mL
AUC(0-t) [2, 15]: 382 ± 44.9 ng·h/mL
half-life [2, 15]: 2.7 ± 0.4 h
Cmax [2, 16]: 336 ± 69.4 ng/mL
AUC(0-t) [2, 16]: 3020 ng·h/mL
half-life [2, 16]: 2.6 ± 0.1 h
Cmax [2, 17]: 114 ± 17 ng/mL
half-life ([2]; male, iv, 0.6 mg/kg, male rats, intravenous X842, plasma analyte as labelled (prodrug X842 / parent linaprazan)): 1.4 ± 0.1 h
AUC(0-t) [2, 17]: 114 ± 7.1 ng·h/mL
Cmax [2, 18]: 6.2 ± 1.7 ng/mL
AUC(0-t) [2, 18]: 22.1 ± 9.9 ng·h/mL
half-life [2, 18]: 2.2 ± 1 h
Cmax [2, 19]: 32 ± 9.7 ng/mL
AUC(0-t) [2, 19]: 134 ± 43.3 ng·h/mL
half-life [2, 19]: 2.6 ± 0.5 h
Cmax [2, 20]: 128 ± 17.5 ng/mL
AUC(0-t) [2, 20]: 576 ± 46.1 ng·h/mL
half-life [2, 20]: 3.1 ± 0.3 h
Compound: Cc1cccc(C)c1CNc1cc(C(=O)NCCO)cn2c(C)c(C)nc12 [linaprazan]
